The values that follow come from US11464738B2, “Ionic liquid-based nanoemulsion formulation for the efficient delivery of hydrophilic and hydrophobic therapeutic agents” (Wisconsin Alumni Research Foundation, priority 2018, dated 2022).

“Also recorded” adds a separate entry of the source. Bounds are passed on as bounds.

For series [1] the following is noted: literature value; cited from earlier work.
The nature of series [2]: UV/vis spectroscopy of the aggregation state of AmB. The conditions noted are these: for aggregation state of AmB in the medium (in words): AmB solubilized in the ionic liquid or ionic liquid mixture named. The series is classed as physicochemical. How it is done: Measuring absorbance of Amphotericin B (AmB) at distinct wavelengths using UV/vis spectroscopy provides insight into its degree of self-aggregation. Absorption spectra were obtained on a Varian Cary 100Bio UV-vis spectrometer (Varian, Palto Alto, Calif.) at 25° C. using a quartz coverslip with a 0.1 mm pathlength (Starna Cells, Inc., Atascadero, Calif.) or a 1 mm pathlength quartz cuvette (Starna Cells, Inc., Atascadero, Calif.). Absorbance was measured from 300 nm to 500 nm. Samples were prepared by direct addition of AmB powder to neat ionic liquids. Ionic liquids solid at room temperature were first melted using a water bath at 60° C. prior to addition of AmB powder. After addition of solid drug, (1) 100 μL of methanol was then added to the IL mixture and the mixture was stirred at room temperature for 1 hour. (2) The drug/IL mixture was then placed under rotary evaporation in a water bath with at a temperature of 60° C. for 1 hour. (3) The drug/IL mixture was then placed under high vacuum for 1 hour. (4) The drug/IL mixture was then allowed to stir for 1 hour. This process (steps 1-4) was repeated until all drug visibly was solubilized. The drug/IL mixture was then placed under rotary evaporation at 60° C. for an additional hour and then under high vacuum for 24 hours prior to use to ensure removal of all methanol. Samples were shielded from light prior to analysis. Neat ionic liquids served as the baseline for AmB samples solubilized in ionic liquid. Dilution samples were performed using 1×PBS for dilution. Analysis of AmB nanoemulsion required a nanoemulsion without drug as the baseline to correct for inherent scattering of the prepared nanoemulsion.

Series [3] in a line: Viscosity (Brookfield viscometer). The series is classed as physicochemical. The conditions noted are these: 30.2 ° C. How it is done: A Brookfield viscometer (Model RVDV-1) was used to analyze the ionic liquids at 30° C. The spindle used on the instrument was CPA-41Z. After addition of 2 mL of sample to the instrument cup, the cup was warmed until all IL samples were completely transparent before beginning the measurement. The RPM was adjusted per sample in order to ensure the percent torque applied per sample was in a consistent range.

Series [4] in a line: Quantitative 19F NMR (QNMR) water-solubility of hydrophobic ionic liquids. The conditions noted are these: saturated D2O; for solubility at 6 days: 25 °C, water, thermodynamic from solid, read-out: Ionic Liquid Concentration in D2O (water-solubility). The series is classed as physicochemical. How it is done: Example 12A: Quantitative ^19F NMR spectroscopy (QNMR) for determination of concentration of hydrophobic ionic liquids in a water-solution for comparison of water-solubility of hydrophobic ionic liquids.
^19F NMR spectra was measured using a Varian UI 500 MHz spectrometer equipped with a Nalorac Quad Nucleus DD probe (qn6121, 5 mm). The internal temperature of the NMR spectrometer was maintained at 25° C. Sodium trifluoroacetate was used as an internal standard was employed in order to determine the concentration of [DC-7][2NTf2]. The internal standard was prepared in D2O and the stock solution was allowed to sonicate at 30° C. for 4 hours prior to use in order to ensure complete dissolution of sodium trifluoroacetate. Prior to quantitative study, the T1 value of both [DC-7][2NTf2] and sodium trifluoroacetate were determined using an inversion recover experiment acquired with 12 independent quadratically spaced variable (tau) values (values from 0.06944-10). The T1 value was calculated in order to ensure that both signals fully relaxed between pulses. The following parameters were employed for acquisition of T1 spectra: 500 MHz; spectra width, 107962.2 Hz; acquisition time, 1.004 s; number of points, 216688; relaxation delay, 18.996 s; number of transients, 1; 90° pulse width, 17.1 μs. X-Win32 software was used to calculate the T1 value and processing included a line broadening of 1 Hz. The T1 value of the sodium trifluoroacetate and [DC-7][2NTf2] was determined to be 2.76±0.172 seconds and 2.69±0.0885 seconds, respectively. After determination of T1, the QNMR study was completed on an optimized spectrum. […] The acquired spectrum has a signal to noise ratio of 4700, which exceeded the desired 3000 needed for quantitation. […] 0.5 mL of D2O was removed and then subsequently analyzed. Integration of the internal standard and [DC-7][2NTf2] allowed for quantitation of the concentration of [DC-7][2NTf2] present in the stock solution used for the zebrafish viability assay.

In series [5] the test system is zebrafish (Danio rerio). Nature of the series: Embryo-larval zebrafish developmental toxicity assay. The series is classed as in vivo. The conditions noted are these: for in vivo toxicity in zebrafish (in words): developmental toxicity assay. Here is the method: In Vivo Developmental Toxicity Study. An embryo-larval zebrafish (Danio rerio) model was used to evaluate the toxicity of the novel dicationic cholinium-based ionic liquid. The following protocol was taken from previously published protocol, analyzing the toxicity of a novel triphilic polymers for use as a component in a nanoemulsion.^1 Zebrafish of the AB strain were obtained from Dr. Michael Taylor at the University of Wisconsin-Madison School of Pharmacy, where the fish were cultured until sexual maturation. Zebrafish were maintained in a light/dark cycle of 14:10 h at 28.5° C. in egg water (0.03% Instant Ocean, Blacksburg, Va., USA). The adult fish were fed Anemia nauplii twice daily. Embryos were obtained from adult fish with a ratio of 1:2 for female to male. Six breeding groups were placed in separate spawning aquariums, equipped with a mesh bottom to prevent the eggs from being cannibalized. Crossing was induced in the morning. After one hour, eggs free of macroscopically discernible symptoms of infection and disease were collected, rinsed with egg water, and transferred into Petri dishes until chemical exposure. The embryo-larval toxicity assay was subsequently carried out. 8 fertilized eggs at 2 hours post fertilization (hpf) stage were added to a 24-well plate. Each well was filled with eggs and contained 600 μL of egg water. Six concentrations plus two controls (negative and positive) were plated. For analysis of [DC-7][2Br], sodium bis(trifluoromethylsulfonyl)imide, and [DC-7][2NTf2] containing nanoemulsion the concentrations analyzed were 1 mM, 333 μM, 111 μM, 37 μM, 12.3 μM, and 4.1 μM. 1.5 mL of [DC-7][2NTf2] was added to a 15 mL conical centrifuge tube followed by 1.5 mL of egg water. The sample was allowed to sit for 6 days prior to use. Each day, the sample was sonicated at 40° C. for 6 hours and then allowed to remain at room temperature for 18 hours. After 6 days, the sample was centrifuged at 2000 rpm for 5 minutes to ensure complete sedimentation of the ionic liquid. 1.2 mL of egg water was removed and served as the stock solution. This served as the highest concentration sample. Integration of the internal standard and [DC-7][2NTf2] in the QNMR sample allowed for quantitation of the concentration of [DC-7][2NTf2] present in the stock solution used for the zebrafish viability assay. The concentrations analyzed for [DC-7][2NTf2] sample were 7.11 mM, 3.56 mM, 1.78 mM, 889 μM, 444 μM, and 222 μM.
The plates were covered and incubated at 28.5° C. in a light/dark cycle of 14:10 throughout the 96 hpf exposure period. The observations of zebrafish development were made directly in the well using a stereomicroscope (Nikon SMZ18) every 24 hours. The end points that were selected to monitor the effects of [DC-7][2Br], sodium bis(trifluoromethylsulfonyl)imide, [DC-7][2NTf2] saturated water solution and nanoemulsion included mortality, spontaneous movement, hatching success, pericardial edema, and curved body axis. Embryos and larvae were considered dead when no heartbeat was observed. The number of hatched embryos and a cumulative mortality tally were recorded every 24 h after 2 hpf. At 96 hpf, following the final observations, representative larvae for [DC-7][2Br] and [DC-7][2NTf2] saturated egg water were anesthetized with 0.4% tricaine mesylate solution and mounted on Petri dishes using low melting point agarose. These larvae were then photographed using a high-definition color microscope camera (Nikon DSFi2). Finally, all larvae used for the analysis were euthanized following.

With `C[C@@H]1[C@H](O)[C@@H](C)/C=C/C=C/C=C/C=C/C=C/C=C/C=C/[C@H](O[C@@H]2O[C@H](C)[C@@H](O)[C@H](N)[C@@H]2O)C[C@@H]2O[C@](O)(C[C@@H](O)C[C@@H](O)[C@H](O)CC[C@@H](O)C[C@@H](O)CC(=O)O[C@H]1C)C[C@H](O)[C@H]2C(=O)O` [AmB, Amphotericin B], the water solubility in series [1] was less than 1.0 µg/mL.
For `CCCCCC(=O)[O-].C[N+](C)(C)CCO` [[Chol][Hex], cholinium hexanoate], the “aggregation state of AmB in the medium (in words)” value in series [2] is “solely the monomeric form”. The “aggregation state of AmB upon dilution (in words)” value in series [2] (dilution with phosphate-buffered saline / saline) is recorded as “shifts from primarily the monomeric to the aggregated form; also recorded: concentration dependent aggregation; also recorded: shifted from monomeric to aggregated”.
Consider `C[N+](C)(CCO)CCOCCOCC[N+](C)(C)CCO` [[DC-ether][2NTf2]], for which the Viscosity in series [3] was 891.5 cP. In addition, in series [4], the solubility at 6 days is 13 mM.
`C[N+](C)(CCO)CCCCCCC[N+](C)(C)CCO` [[DC-7][2NTf2]]: the “aggregation state of AmB in the medium (in words)” value in series [2] is “mixture of the aggregated form and monomeric form; also recorded: mixture of monomeric and aggregated AmB”. Also, the “zebrafish malformations (in words)” value in series [5] (889 μM, 96 hours post fertilization) is recorded as “no malformations”. For the same compound, in series [5] (889 μM, dilution of saturated water solution, 96 hours post fertilization), the “zebrafish survival rate / viability” value is recorded as 100%. Further, the “in vivo toxicity in zebrafish (in words)” value is recorded as “does not exhibit toxicity; also recorded: minimal toxicity” in series [5] (96 hours post fertilization) and “extremely low” in series [5] (96 hours post fertilization, listed as [CDIL-7][NTf2]). Moreover, the solubility at 6 days in series [4] turned out to be 10.7 mM. Further, the “Ionic Liquid Concentration in D2O (water-solubility)” value in series [4] (25° C.) came to 6 mM.
Take `O=S(=O)([N-]S(=O)(=O)C(F)(F)F)C(F)(F)F.[Na+]` [sodium bis(trifluoromethylsulfonyl)imide, reference compound]: the zebrafish survival rate in series [5] (111 μM, 96 hours post fertilization) came out at 87%. The “in vivo toxicity in zebrafish (in words)” value in series [5] (96 hours post fertilization) is given as “minimal toxicity”.
With `O=C(O)C(F)(F)C(F)(F)C(F)(F)C(F)(F)C(F)(F)C(F)(F)C(F)(F)F` [PFOA, perfluorooctanoic acid, reference compound], the “zebrafish malformations, microscope images (in words)” value in series [5] (96 hours post-fertilization, concentration not stated (FIG. 64)) was “spinal curvature”.
